Active and inactive are the calls of the source.
Assays:
[1] = target: T1, Replicative DNA helicase DnaB (Mycobacterium tuberculosis, UniProt P9WMR3); assay: DnaB intein splicing inhibitors, dose response, biochemical, cell-free fluorescence (AID 449749); assay type: functional
T1 sequence (P9WMR3 whole entry): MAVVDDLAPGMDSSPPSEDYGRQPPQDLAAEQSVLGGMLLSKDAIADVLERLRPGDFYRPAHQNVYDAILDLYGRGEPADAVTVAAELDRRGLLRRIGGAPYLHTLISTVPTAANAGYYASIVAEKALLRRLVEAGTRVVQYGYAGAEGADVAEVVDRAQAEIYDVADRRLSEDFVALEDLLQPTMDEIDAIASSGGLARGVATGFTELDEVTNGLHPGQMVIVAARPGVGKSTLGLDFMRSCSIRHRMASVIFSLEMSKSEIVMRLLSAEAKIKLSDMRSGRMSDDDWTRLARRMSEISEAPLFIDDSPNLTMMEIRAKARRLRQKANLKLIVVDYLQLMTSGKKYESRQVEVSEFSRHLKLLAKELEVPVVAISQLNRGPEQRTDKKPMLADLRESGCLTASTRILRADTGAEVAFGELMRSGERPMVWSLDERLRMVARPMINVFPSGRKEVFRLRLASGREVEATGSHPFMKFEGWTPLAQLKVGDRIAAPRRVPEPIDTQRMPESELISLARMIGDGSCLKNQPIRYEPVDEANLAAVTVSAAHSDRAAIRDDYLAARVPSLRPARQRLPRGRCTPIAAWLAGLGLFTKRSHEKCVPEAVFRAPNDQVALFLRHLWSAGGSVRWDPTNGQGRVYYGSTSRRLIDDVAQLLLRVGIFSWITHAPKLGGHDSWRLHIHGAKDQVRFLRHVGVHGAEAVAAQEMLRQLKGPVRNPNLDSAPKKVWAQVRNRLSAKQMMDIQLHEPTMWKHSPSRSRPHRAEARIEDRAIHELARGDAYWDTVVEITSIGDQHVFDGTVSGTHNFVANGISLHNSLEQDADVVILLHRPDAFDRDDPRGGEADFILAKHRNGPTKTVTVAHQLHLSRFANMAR

Protein RecA = target: T2, Protein RecA (Mycobacterium tuberculosis, UniProt P9WHJ3); assay: Fluorescence Cell-Free Homogeneous Dose Retest to Identify Inhibitors of RecA-Intein Splicing Activity. [Related pubchem assays (depositor defined):AID2097, AID2223, AID489010, AID492950]; assay type: functional
T2 sequence (P9WHJ3 whole entry): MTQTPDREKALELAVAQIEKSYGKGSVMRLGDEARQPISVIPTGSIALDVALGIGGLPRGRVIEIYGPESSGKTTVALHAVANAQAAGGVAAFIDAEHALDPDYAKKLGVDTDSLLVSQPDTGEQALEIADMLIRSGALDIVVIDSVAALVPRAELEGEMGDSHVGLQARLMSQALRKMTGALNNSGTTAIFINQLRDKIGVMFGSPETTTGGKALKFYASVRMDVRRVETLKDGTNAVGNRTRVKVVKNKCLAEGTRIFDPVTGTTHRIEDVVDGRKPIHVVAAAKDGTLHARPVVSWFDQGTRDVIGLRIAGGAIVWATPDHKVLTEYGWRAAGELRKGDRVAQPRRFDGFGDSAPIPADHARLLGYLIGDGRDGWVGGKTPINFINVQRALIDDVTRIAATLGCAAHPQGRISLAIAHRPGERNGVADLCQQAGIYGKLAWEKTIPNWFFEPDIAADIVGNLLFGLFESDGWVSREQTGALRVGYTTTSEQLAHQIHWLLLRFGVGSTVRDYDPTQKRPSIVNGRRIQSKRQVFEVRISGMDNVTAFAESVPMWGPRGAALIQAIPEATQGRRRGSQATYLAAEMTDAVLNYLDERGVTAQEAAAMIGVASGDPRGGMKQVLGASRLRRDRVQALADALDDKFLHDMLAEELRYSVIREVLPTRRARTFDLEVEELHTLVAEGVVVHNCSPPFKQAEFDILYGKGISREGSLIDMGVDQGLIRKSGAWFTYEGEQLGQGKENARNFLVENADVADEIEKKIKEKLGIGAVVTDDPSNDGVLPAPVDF

Protein skinhead-1 = target: T3, Protein skinhead-1 (Caenorhabditis elegans, UniProt P34707); assay type: functional
T3 sequence (P34707 whole entry): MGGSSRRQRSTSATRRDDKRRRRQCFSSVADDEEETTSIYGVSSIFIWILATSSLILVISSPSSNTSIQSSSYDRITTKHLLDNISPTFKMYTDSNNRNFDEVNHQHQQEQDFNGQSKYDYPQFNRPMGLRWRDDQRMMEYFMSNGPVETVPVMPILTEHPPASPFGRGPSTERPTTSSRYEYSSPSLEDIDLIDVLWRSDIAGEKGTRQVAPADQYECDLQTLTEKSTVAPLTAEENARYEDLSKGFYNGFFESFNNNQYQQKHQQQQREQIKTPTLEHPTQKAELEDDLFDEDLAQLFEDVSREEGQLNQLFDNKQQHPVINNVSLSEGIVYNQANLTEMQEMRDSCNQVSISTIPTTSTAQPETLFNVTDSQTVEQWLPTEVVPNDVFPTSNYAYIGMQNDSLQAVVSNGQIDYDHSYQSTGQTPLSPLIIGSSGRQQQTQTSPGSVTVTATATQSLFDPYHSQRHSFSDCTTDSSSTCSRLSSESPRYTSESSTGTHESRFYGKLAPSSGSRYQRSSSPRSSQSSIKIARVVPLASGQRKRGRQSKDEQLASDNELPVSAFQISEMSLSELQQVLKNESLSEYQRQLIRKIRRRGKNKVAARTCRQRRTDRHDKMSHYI

[2] = HEp-2 cell cytotoxicity, dose response, cytotoxicity control for RSV inhibitor project, HTS (AID 2410); assay type: functional; details: human respiratory syncytial virus
[3] = target: T4, Heat shock factor protein 1 (Mus musculus, UniProt P38532); assay: HSF1 potentiators in luciferase reporter cells, confirmation, cell-based, NIH3T3, luminescence, dose retest (AID 435004); assay type: functional;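 note: stress induced by proteasome inhibitor MG132 added 30 min after compound; luciferase reporter driven by HSF1 response element in NIH3T3 cells; actives raise luminescence as potentiators of the MG132 stress response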
T4 sequence (P38532 whole entry): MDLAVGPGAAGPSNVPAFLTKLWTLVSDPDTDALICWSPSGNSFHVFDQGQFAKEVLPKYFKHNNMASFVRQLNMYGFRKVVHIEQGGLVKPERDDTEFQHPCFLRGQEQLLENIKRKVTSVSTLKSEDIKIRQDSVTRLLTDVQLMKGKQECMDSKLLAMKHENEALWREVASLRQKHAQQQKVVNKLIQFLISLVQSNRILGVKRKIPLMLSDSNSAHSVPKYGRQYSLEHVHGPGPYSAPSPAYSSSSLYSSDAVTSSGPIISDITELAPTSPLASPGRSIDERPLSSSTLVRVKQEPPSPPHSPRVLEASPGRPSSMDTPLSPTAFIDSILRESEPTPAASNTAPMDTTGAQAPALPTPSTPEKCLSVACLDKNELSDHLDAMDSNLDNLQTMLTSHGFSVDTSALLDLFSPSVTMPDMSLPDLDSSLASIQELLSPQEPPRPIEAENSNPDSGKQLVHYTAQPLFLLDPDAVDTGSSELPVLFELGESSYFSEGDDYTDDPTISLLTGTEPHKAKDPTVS

[4] = target: Luciferin 4-monooxygenase (Photinus pyralis, UniProt P08659); assay: firefly luciferase enzyme inhibitors, dose response, biochemical, luminescence (AID 1891)
[5] = Luminescence Cell-Based Dose Confirmation HTS to Identify Inhibitors of Platelet Dense Granule Release. [Related pubchem assays: 1663 (Primary HTS), 1678 (Summary of Project)]; assay type: functional
[6] = target: T5, Microphthalmia-associated transcription factor (Homo sapiens, UniProt O75030); assay: TRPM1 promoter luciferase signal decrease, dose response, MITF inhibitor project, cell-based, SK-MEL-5, cherry-picked, set 3 (AID 493073); assay type: functional
T5 sequence (O75030 whole entry): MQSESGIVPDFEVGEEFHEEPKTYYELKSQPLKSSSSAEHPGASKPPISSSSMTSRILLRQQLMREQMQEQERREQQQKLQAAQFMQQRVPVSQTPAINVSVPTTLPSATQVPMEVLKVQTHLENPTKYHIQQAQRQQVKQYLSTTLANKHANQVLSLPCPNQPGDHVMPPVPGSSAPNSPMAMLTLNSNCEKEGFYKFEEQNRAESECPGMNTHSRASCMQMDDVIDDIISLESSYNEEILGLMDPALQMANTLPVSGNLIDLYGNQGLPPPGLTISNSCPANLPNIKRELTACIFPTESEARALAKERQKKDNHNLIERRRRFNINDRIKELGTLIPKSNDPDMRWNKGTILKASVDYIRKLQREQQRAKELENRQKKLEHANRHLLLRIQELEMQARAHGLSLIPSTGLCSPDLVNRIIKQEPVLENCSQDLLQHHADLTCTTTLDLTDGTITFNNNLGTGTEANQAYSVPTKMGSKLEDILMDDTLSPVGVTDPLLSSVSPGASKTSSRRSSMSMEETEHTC

[7] = inhibitors of HIV Env-driven cell fusion, dose response, cherry-pick (AID 652057); assay type: functional, cell-based
[8] = inhibitors of clade B AD8 Env fusion, dose response, cell-based, cherry-pick (AID 652062); assay type: functional;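 note: luciferase signal from cell-cell fusion driven by HIV-1 clade B AD8 Env; potency is for inhibitors of fusion seen as a drop in luminescence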
[9] = inhibitors of intracellular T. cruzi replication, confirmation, NIH3T3 host cells, beta-gal luminescence (AID 2044); assay type: functional, cell-based;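 note: intracellular parasites grown in NIH/3T3 mouse fibroblasts as host cells; luminescent beta-galactosidase reporter signal from transgenic T. cruzi replicating inside host cells; inhibitors lower the luminescence signal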
[10] = cytotoxicity toward NIH3T3 fibroblasts, dose response, counter-screen, cell-based, ATP luminescence, mouse fibroblasts (AID 2010); assay type: functional;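 note: cells exposed to compound for about 90 hours before reading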
[11] = target: Induced myeloid leukemia cell differentiation protein Mcl-1 (Homo sapiens, UniProt Q07820); assay type: functional
Chain of Induced myeloid leukemia cell differentiation protein Mcl-1 (Q07820 whole entry): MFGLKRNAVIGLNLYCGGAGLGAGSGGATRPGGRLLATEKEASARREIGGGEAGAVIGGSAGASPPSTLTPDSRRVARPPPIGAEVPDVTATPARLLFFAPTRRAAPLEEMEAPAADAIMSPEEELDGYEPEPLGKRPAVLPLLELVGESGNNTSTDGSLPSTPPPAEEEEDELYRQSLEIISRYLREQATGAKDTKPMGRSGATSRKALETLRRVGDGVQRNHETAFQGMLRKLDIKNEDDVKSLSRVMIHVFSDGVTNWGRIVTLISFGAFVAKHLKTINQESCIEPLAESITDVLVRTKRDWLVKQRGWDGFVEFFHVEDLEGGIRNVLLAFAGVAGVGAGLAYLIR

Chain of Luciferin 4-monooxygenase (P08659 whole entry): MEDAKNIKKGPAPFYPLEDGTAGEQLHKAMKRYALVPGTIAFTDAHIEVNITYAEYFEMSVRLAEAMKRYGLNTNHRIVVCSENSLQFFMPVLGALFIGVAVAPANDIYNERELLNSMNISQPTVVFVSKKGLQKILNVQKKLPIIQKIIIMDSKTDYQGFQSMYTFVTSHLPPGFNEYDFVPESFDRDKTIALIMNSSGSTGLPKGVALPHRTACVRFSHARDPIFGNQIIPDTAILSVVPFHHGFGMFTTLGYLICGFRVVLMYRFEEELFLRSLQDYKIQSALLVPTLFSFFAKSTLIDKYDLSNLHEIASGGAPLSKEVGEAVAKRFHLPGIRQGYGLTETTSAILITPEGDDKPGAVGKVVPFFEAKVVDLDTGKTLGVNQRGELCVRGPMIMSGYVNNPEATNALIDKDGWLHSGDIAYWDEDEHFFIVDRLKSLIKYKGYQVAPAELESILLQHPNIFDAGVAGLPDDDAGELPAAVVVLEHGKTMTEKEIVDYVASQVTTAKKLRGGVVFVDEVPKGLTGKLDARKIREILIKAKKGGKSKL

O=C(Cc1ccccc1)c1c[nH]c(C(=O)C(Cl)(Cl)Cl)c1
AC50 [1]: 4.92 µM (active) | EC50 (Protein RecA): 4.99 µM (active)

COc1ccc(NC(=O)Nc2ccc(N3CCOCC3)c3nonc23)c(OC)c1
IC50 (Protein skinhead-1): > 100 µM (inactive)

O=C(CSc1nc2ccccc2c(=O)n1-c1ccccc1)N1CCCc2ccccc21
CC50 [2]: 39 µM (active)

C(=C1c2ccccc2-c2ccccc21)c1ccncc1
IC50 (Protein skinhead-1): > 100 µM (inactive)

COC(=O)CC1(c2cccc3ccccc23)C(=O)c2ccccc2C1=O
AC50 [1]: 5.91 µM (active) | EC50 (Protein RecA): 4.46 µM (active)

O=C(CCCl)Nc1nc2c(s1)CCc1ccccc1-2
CC50 [2]: 4.52 µM (active) | EC50 [3]: 22.2 µM (active)

Cc1onc(-c2c(Cl)cccc2Cl)c1C(=O)n1nnc2ccccc21
AC50 [1]: 16.4 µM (active) | EC50 (Protein RecA): 26.5 µM (active)

COC(=O)/C=C1\SC(N/N=C/c2ccc(Cl)cc2)=NC1=O
CC50 [2]: 23.5 µM (active) | EC50 [4]: 41.5 µM (active) | EC50 [5]: > 112 µM (not active)

COc1cc2c(cc1OC)C(C)N(S(=O)(=O)c1cnc(Cl)c(Cl)c1)CC2 (stereo unspecified)
EC50 [3]: 29.3 µM (active) | AC50 [6]: 12.1 µM (active)

CCCNC(=O)COC(=O)c1[nH]c(C)c(C(=O)OCC)c1C
IC50 (Protein skinhead-1): > 100 µM (inactive)

CC1=NN(c2ccccc2)C(=O)/C1=C\c1cc(C)n(-c2cccnc2)c1C
AC50 [1]: 44.8 µM (active) | EC50 (Protein RecA): 88.8 µM (active)

O=C(C[C@H]1CC[C@H]2[C@@H](COC[C@H](O)CN2C(=O)Nc2ccc(Cl)c(Cl)c2)O1)NCc1ccncc1
AC50 [7]: 31.5 µM (active) | AC50 [8]: 26.5 µM (active)

Cc1cccc(-n2ncc3c(NC(C)C)ncnc32)c1
CC50 [2]: 34.4 µM (active)

O=C(CN1C(=O)CCS(=O)(=O)c2ccccc21)NCc1ccccc1
IC50 (Protein skinhead-1): > 100 µM (inactive)

CCOc1ccc2nc(NC(=O)C3CCCN(S(=O)(=O)c4cccs4)C3)sc2c1 (stereo unspecified)
CC50 [2]: 24.3 µM (active) | EC50 [9]: 2.51 µM (active) | EC50 [10]: > 60 µM (not active)

C#Cc1cccc(-n2nnc(C(=O)OC)c2-c2ccccc2)c1
IC50 (Protein skinhead-1): > 100 µM (inactive)

O=C(Nc1nc(-c2ccccc2)cs1)c1ccccc1F
IC50 (Protein skinhead-1): > 100 µM (inactive)

CCOC(=O)c1c(N)sc2c1CCSC2
IC50 (Protein skinhead-1): > 100 µM (inactive)

C#CCCc1ccccc1/C=[N+](/C)[O-]
AC50 [6]: 9.4 µM (active)

Brc1ccc(OCc2cn3ccccc3n2)cc1
EC50 [3]: > 260 µM (inactive) | IC50 (Protein skinhead-1): 41.9 µM (active)

Cc1nn(Cc2ccccc2)c2c1C(c1ccc(Cl)cc1)C(C#N)=C(N)O2 (stereo unspecified)
AC50 [1]: 6.41 µM (active) | EC50 (Protein RecA): 3.58 µM (active)

COc1ccc(-c2csc(Nc3ccccc3)n2)cc1
IC50 [11]: 10.3 µM (not active) | IC50 (Protein skinhead-1): > 100 µM (inactive)
